Key:
[1] = molecular target: T1, AMP-binding enzyme family protein (Yersinia pestis, UniProt Q56950); assay: Inhibition of Yersinia pestis YbtE assessed as incorporation of [3H]salicyl group to HMWP2 protein
T1 sequence (Q56950 whole entry): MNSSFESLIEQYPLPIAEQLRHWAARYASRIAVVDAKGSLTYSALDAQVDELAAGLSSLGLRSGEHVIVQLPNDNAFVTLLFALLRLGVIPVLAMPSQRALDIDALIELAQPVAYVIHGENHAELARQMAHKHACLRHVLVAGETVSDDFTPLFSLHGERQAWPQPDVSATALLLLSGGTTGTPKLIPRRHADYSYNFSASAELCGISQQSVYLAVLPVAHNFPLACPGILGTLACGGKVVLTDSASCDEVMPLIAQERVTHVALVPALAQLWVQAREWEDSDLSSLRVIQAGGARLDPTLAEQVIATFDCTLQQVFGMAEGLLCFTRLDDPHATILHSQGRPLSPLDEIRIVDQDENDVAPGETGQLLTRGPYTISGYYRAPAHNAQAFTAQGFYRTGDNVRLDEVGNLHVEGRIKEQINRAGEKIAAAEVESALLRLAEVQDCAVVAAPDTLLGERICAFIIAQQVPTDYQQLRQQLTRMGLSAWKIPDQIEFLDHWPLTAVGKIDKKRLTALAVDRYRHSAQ

[2] = test system: Mycobacterium tuberculosis; assay: Antimycobacterial activity against Mycobacterium tuberculosis H37Rv in presence of iron rich GAST-D medium; assay type: functional, organism-based
[3] = test system: Mycobacterium tuberculosis; assay: Antimycobacterial activity against Mycobacterium tuberculosis H37Rv in presence of iron deficient GAST-D medium; assay type: functional, organism-based
Yersinia pestis [4] = assay: Antimicrobial activity against Yersinia pestis KIM6-2082.1+ in presence of iron rich PMH-D medium; assay type: functional, organism-based
Yersinia pestis [5] = assay: Antimicrobial activity against Yersinia pestis KIM6-2082.1+ in presence of iron limiting PMH-D medium; assay type: functional, organism-based
[6] = Cytotoxicity against human HeLa cells after 24 hrs; assay type: cell-based; conditions: read-out: CD50
Yersinia pestis [7] = assay: Ratio of MIC90 for Yersinia pestis KIM6-2082.1+ in iron rich PMH-D medium to MIC90 for Yersinia pestis KIM6-2082.1+ in presence of iron limiting PMH-D medium; assay type: functional

| Structure (SMILES) | IC50 [1] | IC50 [2] | MIC90 [2] | IC50 [3] | MIC90 [3] | IC50 (Yersinia pestis [4]) | MIC90 (Yersinia pestis [4]) | IC50 (Yersinia pestis [5]) | MIC90 (Yersinia pestis [5]) | CC50 at 24 h [6] | Ratio (Yersinia pestis [7]) |
| --- | --- | --- | --- | --- | --- | --- | --- | --- | --- | --- | --- |
| Oc1ccccc1C1=NN(C(=S)Nc2ccccc2)[C@H](c2ccccc2)C1 | 0.5 µM | ≥ 500 µM | ≥ 500 µM | ≥ 500 µM | ≥ 500 µM | > 9 µM | > 9 µM | > 9 µM | > 9 µM | 3 µM | – |
| COc1cc([C@@H]2CC(c3ccccc3O)=NN2C(=S)Nc2ccccc2OC)ccc1O | 0.8 µM | ≥ 500 µM | ≥ 500 µM | ≥ 500 µM | ≥ 500 µM | > 9 µM | > 9 µM | 1 µM | 6 µM | 11 µM | >2 |
| COc1ccc(NC(=S)N2N=C(c3ccccc3O)C[C@H]2c2ccc(O)cc2)cc1 | 7 µM | ≥ 500 µM | ≥ 500 µM | ≥ 500 µM | ≥ 500 µM | > 19 µM | > 19 µM | 0.7 µM | 2 µM | 4 µM | >10 |
| COc1ccccc1[C@@H]1CC(c2ccccc2O)=NN1C(=S)Nc1ccccc1 | 3 µM | > 250 µM | > 250 µM | > 250 µM | > 250 µM | > 5 µM | > 5 µM | 0.4 µM | > 5 µM | 6 µM | – |
| COc1cc([C@@H]2CC(c3ccccc3O)=NN2C(=S)Nc2ccccc2)ccc1O | 0.2 µM | ≥ 500 µM | ≥ 500 µM | ≥ 500 µM | ≥ 500 µM | > 150 µM | > 150 µM | 2 µM | 5 µM | 13 µM | >30 |
| Cc1ccc(NC(=S)N2N=C(c3ccccc3O)C[C@H]2c2ccc(O)cc2)cc1 | 0.4 µM | ≥ 500 µM | ≥ 500 µM | ≥ 500 µM | ≥ 500 µM | > 9 µM | > 9 µM | 0.9 µM | 3 µM | 3 µM | >3 |
| Oc1ccccc1C1=NN(C(=S)Nc2ccccc2)[C@H](c2cccs2)C1 | 2 µM | – | – | – | – | – | – | – | – | – | – |
| Oc1ccc([C@@H]2CC(c3ccccc3)=NN2C(=S)Nc2ccccc2)cc1 | > 12.5 µM | ≥ 500 µM | ≥ 500 µM | ≥ 500 µM | ≥ 500 µM | > 38 µM | > 38 µM | > 38 µM | > 38 µM | 29 µM | – |
| COc1ccc([C@@H]2CC(c3ccccc3O)=NN2C(=S)Nc2ccccc2)cc1 | 1 µM | ≥ 500 µM | ≥ 500 µM | ≥ 500 µM | ≥ 500 µM | > 19 µM | > 19 µM | 0.7 µM | > 19 µM | 5 µM | – |
| Nc1ncnc2c1ncn2[C@@H]1O[C@H](COS(=O)(=O)NC(=O)c2ccccc2O)[C@@H](O)[C@H]1O | 0.007 µM | – | – | – | – | – | – | – | – | – | – |
| CN[C@@H]1[C@H](O[C@H]2[C@H](O[C@H]3[C@H](O)[C@@H](O)[C@H](N=C(N)N)[C@@H](O)[C@@H]3N=C(N)N)O[C@@H](C)[C@]2(O)C=O)O[C@@H](CO)[C@H](O)[C@H]1O (stereo in doubt) [STREPTOMYCIN] | – | – | – | – | – | – | 0.2 µM | – | 0.2 µM | > 500 µM | 1 |
| C[C@@H]1C[C@@H]([C@H](O)CC2CC(=O)NC(=O)C2)C(=O)[C@@H](C)C1 [CYCLOHEXIMIDE] | – | – | – | – | – | – | – | – | – | 0.1 µM | – |
| Oc1ccccc1C1=NN(C(=S)Nc2ccccc2)[C@H](c2ccccc2Cl)C1 | 2 µM | ≥ 500 µM | ≥ 500 µM | ≥ 500 µM | ≥ 500 µM | > 5 µM | > 5 µM | > 5 µM | > 5 µM | 5 µM | – |

Reference: ChEMBL document CHEMBL1144812, “Small molecules with structural similarities to siderophores as novel antimicrobials against Mycobacterium tuberculosis and Yersinia pestis” (Bioorg Med Chem Lett, 2008)
